Test results published in patent publication US4558059A, “2-Substituted-phenylthiazole derivatives” (priority 1980, dated 1985).
Read-outs that look alike come from different tables or passages of the source.

Experiments:
[1] = test system: Peptic ulcer due to pyloric ligation; test: Effect on peptic ulcer due to pyloric ligation; assay type: in vivo, male rats; details: intraperitoneal, rats; for Ulcer coefficient: 100 mg/kg, just after ligation, 15 hours; for inhibition in vivo at 100 mg/kg: Rattus norvegicus, ip, 15 h, control ulcer coefficient 42.0 mm^2, read-out: Rate of suppression of ulcer
Protocol: Just after subjecting to ligation, each of the present compound suspended in an aqueous physiological saline solution was intraperitoneally administered to each rat, the control being injected with an aqueous physiological saline solution. Then, after 15 hours of fasting without taking water, the rats were sacrificed with ether and their stomachs were removed to examine under a microscope for anatomy. The length and width of the thus-formed ulcer in the stomach were determined and expressed by the product (mm^2), and the total sum of the products was represented as the ulcer coefficient.

[2] = test system: Peptic ulcer due to acetic acid; test: Effect on peptic ulcer due to acetic acid (duodenal); assay type: in vivo, male rats; details: for Ulcer coefficient: orally 3 times a day for 10 days from third day; for inhibition in vivo at 100 mg/kg: Rattus norvegicus, po, 240 h, read-out: Rate of suppression of ulcer
Protocol: To the control group, only the aqueous physiological saline solution was administered. After the administration was over, the rats were sacrificed with ether, and their duodenum was removed to observe under a microscope for anatomy. The length and width of the thus-formed ulcer were measured and their product (expressed with mm^2) was recorded as the ulcer coefficient.

[3] = Acute toxicity test, oral; details: mouse, in vivo, p.o., female ICR-mice, mortality for a week, Litchfield-Wilcoxon
Protocol: Ten animals per group were kept in a transparent polycage at room temperature of 23°±1° C., and RH of 60 to 70%.
After minutely pulverizing each one of the present compounds, the pulverized compound was suspended in an aqueous 5% sodium carboxymethylcellulose solution containing 20% of Tween-80. The aqueous suspension was forcibly orally administered by a metal stomach tube, the dose rate having been adjusted by changing the concentration of the present compound in the aqueous suspension.

peptic ulcer = details: cited from earlier work
[4] = 100 mg/kg, orally 3 times a day for 10 days, rats, control ulcer coefficient 9.0 mm^2

SMILES	Ulcer coefficient [1]	inhibition in vivo at 100 mg/kg [1]	Ulcer coefficient ([2]; 100 mg/kg, rats)	inhibition in vivo at 100 mg/kg [2, 4]	LD50 at 168 h [3]	inhibition in vivo at 100 mg/kg [2]	Accelerating effect on the ulcer-curing (peptic ulcer; background statement)	Side effects (peptic ulcer; in vivo)	Effectiveness / curative effect ([2]; in words, rats)
CNC(=O)c1sc(-c2ccccc2OC)nc1C [Compound 7, 2-(2-methoxyphenyl)-4-methylthiazole-5-methylcarboxamide]	8.6 mm^2	79.5%	1.7 mm^2	81.1%					
CNC(=O)c1sc(-c2ccc(OC)c(OC)c2)nc1C [Compound 4, 2-(3,4-dimethoxyphenyl)-4-methylthiazole-5-methylcarboxamide]	11.0 mm^2	73.8%	1.8 mm^2	80%					
CCCNC(=O)c1sc(-c2ccc(OC)cc2)nc1C [Compound 11, 2-(4-methoxyphenyl)-4-methylthiazole-5-n-propylcarboxamide]	8.5 mm^2	79.8%	2.5 mm^2	72.2%					
CCCNC(=O)c1sc(-c2cc(OC)c(OC)c(OC)c2)nc1C [Compound 2, 2-(3,4,5-trimethoxyphenyl)-4-methylthiazole-5-n-propylcarboxamide]	6.3 mm^2	85%	2.7 mm^2	70%	5600 mg/kg				
CCCNC(=O)c1sc(-c2ccccc2OC)nc1C [Compound 8, 2-(2-methoxyphenyl)-4-methylthiazole-5-n-propylcarboxamide]	9.0 mm^2	78.6%	3.2 mm^2	64.4%					
COc1ccc(-c2nc(C)c(C(N)=O)s2)cc1 [Compound 9, 2-(4-methoxyphenyl)-4-methylthiazole-5-carboxyamide]	0.9 mm^2	97.9%	2.0 mm^2	77.8%					
CNC(=O)c1sc(-c2ccc(OC)cc2)nc1C [Compound 10, 2-(4-methoxyphenyl)-4-methylthiazole-5-methylcarboxamide]	6.4 mm^2	84.8%	3.1 mm^2	65.6%					
CCCNC(=O)c1sc(-c2ccc(OC)c(OC)c2)nc1C [Compound 5, 2-(3,4-dimethoxyphenyl)-4-methylthiazole-5-n-propylcarboxamide]	8.4 mm^2	80%	2.9 mm^2	67.8%					
COc1ccccc1-c1nc(C)c(C(N)=O)s1 [Compound 6, 2-(2-methoxyphenyl)-4-methylthiazole-5-carboxamide]	1.2 mm^2	97.1%	2.1 mm^2	76.7%					
COc1ccc(-c2nc(C)c(C(N)=O)s2)cc1OC [Compound 3, 2-(3,4-dimethoxyphenyl)-4-methylthiazole-5-carboxamide]	0.8 mm^2	98.1%	1.3 mm^2			85.6%			
CNC(=O)c1sc(-c2cc(OC)c(OC)c(OC)c2)nc1C [Compound 1, 2-(3,4,5-trimethoxyphenyl)-4-methylthiazole-5-methylcarboxamide]	14.7 mm^2	65%	3.1 mm^2	65.6%					
CC1(C)[C@@H](OC(=O)CCC(=O)O)CC[C@]2(C)[C@H]3C(=O)C=C4[C@@H]5C[C@@](C)(C(=O)O)CC[C@]5(C)CC[C@@]4(C)[C@]3(C)CC[C@@H]12 [carbenoxolone]							excellent accelerating effect on the ulcer-curing	aldosterone-like side effects to cause hypertension and weakening of muscular function	
CC(C)=CCCC(C)=CCCC(C)=CCCC(=O)OCC=C(C)CCC=C(C)C [Gefarnate, 3,7dimethyl-2,6-octadienyl 5,9,13trimethyl-4,8,12-tetradecatrienoate, reference compound]	36.9 mm^2	12.1%	7.2 mm^2	20%					only a slight effectiveness is recognized
